# Tests used:
# Experiment in all cases: relative viability (nuclei count vs DMSO), 5 days (fraction); higher = more cells survive
# [1] = compound: Cc1ccc(NC(=O)c2ccc(CN3CCN(C)CC3)cc2)cc1Nc1nccc(-c2cccnc2)n1 [Imatinib] + CC1(C)CCC(c2ccc(Cl)cc2)=C(CN2CCN(c3ccc(C(=O)NS(=O)(=O)c4ccc(N[C@H](CCN5CCOCC5)CSc5ccccc5)c(S(=O)(=O)C(F)(F)F)c4)cc3)CC2)C1 [Navitoclax] (partner 0.5 µM)
# Summary of the method: (§1)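 Relative viability divides the nuclei count in treated wells by that in vehicle wells. Lung cancer cell lines were seeded in 1536-well plates, dosed by pin tool the next day, and fixed and stained after 5 days in one step with final 0.05% Triton X-100, 1% formaldehyde and 1 ug/ml Hoechst. Dosing was a single drug or a fixed anchor-drug dose plus five library-drug doses (not always all listed) in √10 steps, and values are medians of duplicate plates imaged at 4×.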
# [2] = compound: Cc1ccc(NC(=O)c2ccc(CN3CCN(C)CC3)cc2)cc1Nc1nccc(-c2cccnc2)n1 [Imatinib] + Nc1nc2[nH]cc(CCc3ccc(C(=O)N[C@@H](CCC(=O)O)C(=O)O)cc3)c2c(=O)[nH]1 [Pemetrexed] (partner 0.2 µM)
# Summary of the method: as §1
# [3] = compound: Cc1ccc(NC(=O)c2ccc(CN3CCN(C)CC3)cc2)cc1Nc1nccc(-c2cccnc2)n1 [Imatinib] + NC(=O)Nc1cc(-c2cccc(F)c2)sc1C(=O)N[C@H]1CCCNC1 [AZD7762] (partner 0.2 µM)
# Summary of the method: as §1
# [4] = compound: Cc1ccc(NC(=O)c2ccc(CN3CCN(C)CC3)cc2)cc1Nc1nccc(-c2cccnc2)n1 [Imatinib] + CC(=O)Nc1cccc(-n2c(=O)n(C3CC3)c(=O)c3c(Nc4ccc(I)cc4F)n(C)c(=O)c(C)c32)c1 [Trametinib] (partner 0.02 µM)
# Summary of the method: as §1
cell line,measurement,setting,value
LOU-NH91,relative viability,[1]; first compound 0.02 µM,0.76
same,relative viability,[1]; first compound 0.2 µM,0.654
same,relative viability,[1]; first compound 0.6325 µM,0.569
same,relative viability,[1]; first compound 2 µM,0.613
same,relative viability,[2]; first compound 0.02 µM,0.361
same,relative viability,[2]; first compound 0.06325 µM,0.385
same,relative viability,[2]; first compound 0.2 µM,0.381
same,relative viability,[2]; first compound 0.6325 µM,0.405
same,relative viability,[2]; first compound 2 µM,0.395
same,relative viability,[3]; first compound 0.02 µM,0.784
same,relative viability,[3]; first compound 0.06325 µM,0.829
same,relative viability,[3]; first compound 0.2 µM,0.81
same,relative viability,[3]; first compound 0.6325 µM,0.809
same,relative viability,[3]; first compound 2 µM,0.749
same,relative viability,[4]; first compound 0.02 µM,0.801
same,relative viability,[4]; first compound 0.06325 µM,0.782
same,relative viability,[4]; first compound 0.2 µM,0.819
same,relative viability,[4]; first compound 0.6325 µM,0.83
same,relative viability,[4]; first compound 2 µM,0.754
LU99A,relative viability,[1]; first compound 0.02 µM,0.905
same,relative viability,[1]; first compound 0.06325 µM,0.788
same,relative viability,[1]; first compound 0.2 µM,0.807
same,relative viability,[1]; first compound 0.6325 µM,1.08
same,relative viability,[1]; first compound 2 µM,0.855
same,relative viability,[2]; first compound 0.02 µM,0.161
same,relative viability,[2]; first compound 0.06325 µM,0.206
same,relative viability,[2]; first compound 0.2 µM,0.157
same,relative viability,[2]; first compound 0.6325 µM,0.232
same,relative viability,[2]; first compound 2 µM,0.313
same,relative viability,[3]; first compound 0.02 µM,0.437
same,relative viability,[3]; first compound 0.06325 µM,0.274
same,relative viability,[3]; first compound 0.2 µM,0.336
same,relative viability,[3]; first compound 0.6325 µM,0.254
same,relative viability,[3]; first compound 2 µM,0.405
same,relative viability,[4]; first compound 0.02 µM,0.53
same,relative viability,[4]; first compound 0.06325 µM,0.638
same,relative viability,[4]; first compound 0.2 µM,0.517
same,relative viability,[4]; first compound 0.6325 µM,0.556
same,relative viability,[4]; first compound 2 µM,0.318
LXF-289,relative viability,[1]; first compound 0.02 µM,0.98
same,relative viability,[1]; first compound 0.06325 µM,0.944
same,relative viability,[1]; first compound 0.2 µM,1.08
same,relative viability,[1]; first compound 0.6325 µM,0.907
same,relative viability,[1]; first compound 2 µM,0.924
same,relative viability,[2]; first compound 0.02 µM,0.91
same,relative viability,[2]; first compound 0.2 µM,0.88
same,relative viability,[2]; first compound 0.6325 µM,0.893
same,relative viability,[2]; first compound 2 µM,0.923
same,relative viability,[3]; first compound 0.02 µM,1.13
same,relative viability,[3]; first compound 0.2 µM,1.25
same,relative viability,[3]; first compound 0.6325 µM,1.04
same,relative viability,[3]; first compound 2 µM,1.09
same,relative viability,[4]; first compound 0.02 µM,0.662
same,relative viability,[4]; first compound 0.2 µM,0.755
same,relative viability,[4]; first compound 0.6325 µM,0.636
same,relative viability,[4]; first compound 2 µM,0.679
NCI-H23,relative viability,[1]; first compound 0.02 µM,1.04
same,relative viability,[1]; first compound 0.06325 µM,0.916
same,relative viability,[1]; first compound 0.2 µM,1.1
same,relative viability,[1]; first compound 0.6325 µM,0.738
same,relative viability,[1]; first compound 2 µM,0.87
same,relative viability,[2]; first compound 0.02 µM,0.692
same,relative viability,[2]; first compound 0.06325 µM,0.69
same,relative viability,[2]; first compound 2 µM,0.571
same,relative viability,[3]; first compound 0.02 µM,0.27
same,relative viability,[3]; first compound 0.06325 µM,0.285
same,relative viability,[3]; first compound 0.2 µM,0.23
same,relative viability,[3]; first compound 0.6325 µM,0.203
same,relative viability,[3]; first compound 2 µM,0.21
same,relative viability,[4]; first compound 0.02 µM,0.389
same,relative viability,[4]; first compound 0.06325 µM,0.393
same,relative viability,[4]; first compound 0.2 µM,0.376
same,relative viability,[4]; first compound 0.6325 µM,0.371
same,relative viability,[4]; first compound 2 µM,0.379
NCI-H322M,relative viability,[1]; first compound 0.02 µM,1.21
same,relative viability,[1]; first compound 0.06325 µM,1.26
same,relative viability,[1]; first compound 0.6325 µM,1.17
same,relative viability,[1]; first compound 2 µM,1.13
same,relative viability,[2]; first compound 0.02 µM,0.677
same,relative viability,[2]; first compound 0.06325 µM,0.613
same,relative viability,[2]; first compound 0.2 µM,0.63
same,relative viability,[2]; first compound 0.6325 µM,0.563
same,relative viability,[2]; first compound 2 µM,0.63
same,relative viability,[3]; first compound 0.02 µM,0.565
same,relative viability,[3]; first compound 0.06325 µM,0.673
same,relative viability,[3]; first compound 0.2 µM,0.529
same,relative viability,[3]; first compound 0.6325 µM,0.608
same,relative viability,[3]; first compound 2 µM,0.586
same,relative viability,[4]; first compound 0.02 µM,0.45
same,relative viability,[4]; first compound 0.06325 µM,0.48
same,relative viability,[4]; first compound 0.2 µM,0.546
same,relative viability,[4]; first compound 0.6325 µM,0.535
same,relative viability,[4]; first compound 2 µM,0.507
NCI-H441,relative viability,[1]; first compound 0.02 µM,0.647
same,relative viability,[1]; first compound 0.06325 µM,0.675
same,relative viability,[1]; first compound 0.2 µM,0.606
same,relative viability,[1]; first compound 0.6325 µM,0.612
same,relative viability,[1]; first compound 2 µM,0.572
same,relative viability,[2]; first compound 0.02 µM,0.278
same,relative viability,[2]; first compound 0.06325 µM,0.262
same,relative viability,[2]; first compound 0.2 µM,0.27
same,relative viability,[2]; first compound 0.6325 µM,0.265
same,relative viability,[2]; first compound 2 µM,0.24
same,relative viability,[3]; first compound 0.02 µM,1.34
same,relative viability,[3]; first compound 0.06325 µM,1.34
same,relative viability,[3]; first compound 0.2 µM,1.17
same,relative viability,[3]; first compound 0.6325 µM,1.1
same,relative viability,[3]; first compound 2 µM,1.08
same,relative viability,[4]; first compound 0.02 µM,0.537
same,relative viability,[4]; first compound 0.06325 µM,0.459
same,relative viability,[4]; first compound 0.2 µM,0.572
same,relative viability,[4]; first compound 0.6325 µM,0.517
same,relative viability,[4]; first compound 2 µM,0.37
NCI-H460,relative viability,[1]; first compound 0.02 µM,1.65
same,relative viability,[1]; first compound 0.06325 µM,1.58
same,relative viability,[1]; first compound 0.2 µM,1.96
same,relative viability,[1]; first compound 0.6325 µM,1.17
same,relative viability,[1]; first compound 2 µM,1.3
same,relative viability,[2]; first compound 0.02 µM,0.0572
same,relative viability,[2]; first compound 0.06325 µM,0.0576
same,relative viability,[2]; first compound 0.2 µM,0.0551
same,relative viability,[2]; first compound 0.6325 µM,0.0623
same,relative viability,[2]; first compound 2 µM,0.0654
same,relative viability,[3]; first compound 0.02 µM,0.658
same,relative viability,[3]; first compound 0.06325 µM,0.783
same,relative viability,[3]; first compound 0.2 µM,0.606
same,relative viability,[3]; first compound 0.6325 µM,0.489
same,relative viability,[3]; first compound 2 µM,0.509
same,relative viability,[4]; first compound 0.02 µM,0.142
same,relative viability,[4]; first compound 0.06325 µM,0.102
same,relative viability,[4]; first compound 0.2 µM,0.199
same,relative viability,[4]; first compound 0.6325 µM,0.125
same,relative viability,[4]; first compound 2 µM,0.21
NCI-H596,relative viability,[1]; first compound 0.02 µM,1.07
same,relative viability,[1]; first compound 0.06325 µM,0.861
same,relative viability,[1]; first compound 0.2 µM,1
same,relative viability,[1]; first compound 0.6325 µM,0.876
same,relative viability,[2]; first compound 0.02 µM,0.497
same,relative viability,[2]; first compound 0.06325 µM,0.507
same,relative viability,[2]; first compound 0.2 µM,0.509
same,relative viability,[2]; first compound 0.6325 µM,0.466
same,relative viability,[2]; first compound 2 µM,0.487
same,relative viability,[3]; first compound 0.02 µM,1.21
same,relative viability,[3]; first compound 0.06325 µM,1.03
same,relative viability,[3]; first compound 0.6325 µM,0.948
same,relative viability,[3]; first compound 2 µM,1.13
same,relative viability,[4]; first compound 0.02 µM,0.721
same,relative viability,[4]; first compound 0.06325 µM,1.06
same,relative viability,[4]; first compound 0.2 µM,0.876
same,relative viability,[4]; first compound 0.6325 µM,0.693
